Results reported in the NIST ThermoML archive (doi:10.1016/j.fluid.2016.06.028).

Conditions: for surface tension liquid-gas: Ring tensiometer; for viscosity / electrical conductivity / mass density: 101.33 kPa, Liquid; for viscosity: Concentric cylinders viscometry; for electrical conductivity: Direct current cell with electrodes; for mass density: Vibrating tube method

COCC[N+]1(C)CCOCC1.O=S(=O)([N-]S(=O)(=O)C(F)(F)F)C(F)(F)F
Conditions | electrical conductivity [S/m] | mass density [kg/m3] | surface tension liquid-gas [mN/m] | viscosity [mPa·s]
298.15 K | 0.065 | 1500.2 | 50.14 | 257.6
303.15 K | 0.079 | 1495.7 | 49.3 | 210.9
313.15 K | 0.108 | 1486.4 | 48.41 | 127.2
323.15 K | 0.136 | 1477.2 | 47.64 | 77.98
333.15 K | 0.17 | 1468 | 46.3 | 51.89
343.15 K | 0.257 | 1458.9 | 45.36 | 37.49
353.15 K | 0.334 | 1449.8 | 44.74 | 27.59

CCC[N+](C)(C)CC.O=S(=O)([N-]S(=O)(=O)C(F)(F)F)C(F)(F)F
Conditions | electrical conductivity [S/m] | mass density [kg/m3] | surface tension liquid-gas [mN/m] | viscosity [mPa·s]
298.15 K | 0.248 | 1403 | 46.56 | 58.79
303.15 K | 0.281 | 1398.8 | 45.84 | 53.39
313.15 K | 0.325 | 1389.8 | 44.92 | 38.39
323.15 K | 0.358 | 1381 | 43.95 | 28.49
333.15 K | 0.414 | 1372.1 | 43.34 | 21.3
343.15 K | 0.519 | 1362.4 | 42.03 | 17.1
353.15 K | 0.634 | 1352.7 | 40.89 | 14.1

CC[N+](C)(C)CCOC.O=S(=O)([N-]S(=O)(=O)C(F)(F)F)C(F)(F)F
Conditions | electrical conductivity [S/m] | mass density [kg/m3] | surface tension liquid-gas [mN/m] | viscosity [mPa·s]
298.15 K | 0.288 | 1424.9 | 47.56 | 59.39
303.15 K | 0.315 | 1420.5 | 47.32 | 50.39
313.15 K | 0.357 | 1411 | 45.67 | 30.59
323.15 K | 0.395 | 1401.5 | 44.86 | 23.1
333.15 K | 0.465 | 1390.3 | 43.46 | 18.3
343.15 K | 0.551 | 1379.2 | 42.23 | 15
353.15 K | 0.633 | 1368.9 | 40.44 | 13.2

COCC[N+]1(C)CCCCC1.O=S(=O)([N-]S(=O)(=O)C(F)(F)F)C(F)(F)F
Conditions | electrical conductivity [S/m] | mass density [kg/m3] | surface tension liquid-gas [mN/m] | viscosity [mPa·s]
298.15 K | 0.209 | 1433.2 | 44.65 | 69.89
303.15 K | 0.241 | 1429 | 44.06 | 55.79
313.15 K | 0.287 | 1419.8 | 43.2 | 35.69
323.15 K | 0.325 | 1410.7 | 42.01 | 26
333.15 K | 0.396 | 1401.7 | 40.98 | 19.8
343.15 K | 0.489 | 1392.5 | 40.19 | 15.6
353.15 K | 0.599 | 1383.3 | 38.83 | 13.8

COCC[N+]1(C)CCCC1.O=S(=O)([N-]S(=O)(=O)C(F)(F)F)C(F)(F)F
Conditions | electrical conductivity [S/m] | mass density [kg/m3] | surface tension liquid-gas [mN/m] | viscosity [mPa·s]
298.15 K | 0.345 | 1453 | 49.22 | 52.19
303.15 K | 0.402 | 1448.7 | 48.62 | 46.49
313.15 K | 0.48 | 1439.3 | 47.34 | 34.49
323.15 K | 0.534 | 1429.9 | 46.18 | 25.79
333.15 K | 0.59 | 1420.7 | 45 | 20.1
343.15 K | 0.648 | 1411.2 | 44.26 | 16.8
353.15 K | 0.699 | 1401.9 | 42.28 | 13.5
